The results in this text go back to a melting point compilation (Tetko et al.; mined from patent text by program, amines drawn as free bases though some values may be those of a salt).

Bounds are passed on as bounds.

In general, melting point refers to the temperature of the solid-liquid transition. For the compound `NC(=O)c1nc(-c2cccc(O)c2)nc2c1[nH]c(=O)n2CC1CCOCC1`, the melting point was 363 to 365 °C. `COC(=O)C(Cc1ccc(OCCc2nc(-c3ccccc3)oc2C)cc1)C(=O)NC(C)=O` (centres undefined) gave a melting point of 126 to 128 °C.

`O=C(O)C1(O)CCc2ccccc2C1` (single isomer, unassigned; (-)) showed a melting point of 134 to 135 °C. Consider `O=C1CCCc2cc(O)ccc21`, for which the melting point is 153 to 155 °C. With `CC12CC(N3CCOCC3)C(O)CC1CCC1C2CCC2(C)C(C(=O)CCl)CCC12` (centres undefined), the melting point was determined as 181 °C.

Compound `CC(C)(C)OC(=O)[C@@H]1CS[C@H](c2cccc(O)c2)N1C(=O)CNC(=O)Nc1cccc(C(=O)O)c1` registered a melting point of 150 °C. Consider `OC1CCCCC1c1ccccc1` (centres undefined), for which the melting point was 55 to 57 °C. In turn, `O=C(Cc1ccccc1Cl)Nc1ccc(C(=O)N2Cc3cccn3Cc3ccccc32)cc1` registered a melting point of 99 to 103 °C. In turn, `CC(C)(C)c1cc(SC(Sc2cc(C(C)(C)C)c(O)c(C(C)(C)C)c2)c2ccccc2)cc(C(C)(C)C)c1O` came in with a melting point of 122 to 124 °C.

In the case of `N=C(NCCN1CCC(Nc2nc3ccccc3n2Cc2ccc(F)cc2)CC1)N[N+](=O)[O-]`, the melting point is 147 °C.

`O=C(N1CCN(c2nc(N3CC=CC3)nc(N3CC=CC3)n2)CC1)n1ccnc1` gave a melting point of 160 to 162 °C. `COC(=S)NS(=O)(=O)c1ccc(Cl)cc1`: the melting point lay within 129 to 130 °C. On to `CCCCCCOc1ccc(C(=O)NCCC(C)(C)C)cn1`, for which the melting point lay in the range of 75 to 76.5 °C. For the compound `CCOc1ccc([N+](=O)[O-])cc1-c1nc2cccnc2c(=O)[nH]1`, the melting point fell in the range of 251 to 254 °C. `COC(=O)C(CCSC)NC(=O)c1ccc(NC(=O)Cc2cn(C)cn2)cc1-c1ccccc1` (centres undefined) returned a melting point of 69 to 70 °C.

In turn, `Clc1ccc2c(c1)CCc1cccnc1C2=C1CCN(Cc2cccnc2Cl)CC1` had a melting point of 56.6 to 60.2 °C. Then `CS(=O)(=O)c1cccc(C(Cc2ccc(F)cc2)C(=O)Nc2nc3ccccc3o2)c1` (centres undefined), with 99 to 100 °C; and `CC(C)C(Oc1ccccc1)C(=O)OC1CC(O)C=C2C=CC(C)C(CCC3CC(O)CC(=O)O3)C21` (mixture of isomers), with 143 to 145 °C; and `CN1CC=C(c2c[nH]c3ccc(NC(=O)c4ccc(Cl)cc4)cc23)CC1`, with 224 to 226 °C. The compound `O=c1cc(C(F)(F)C(F)(F)F)nc[nH]1` gave a melting point of 122 to 126 °C. Under `N#Cc1ccc(Oc2ccccc2)cc1Oc1ccccc1` stands 85 to 86 °C. Under `CCCc1c(OCCCc2ccc3cc(OC)c(OC)cc3c2)ccc(C(=O)OCc2ccccc2)c1O` stands 94 to 96 °C; under `CCCc1c2c(c(N)c3c(=O)cc(C(=O)OCC)oc13)CC(C(=O)OCC)CC2` (centres undefined), 102 to 103 °C; under `O=C1O[C@@H](COc2cnsn2)CN1c1ccc(C2=CCOCC2)c(F)c1`, 146 to 148 °C. Under `CSc1nncc(-c2cccc(Cl)c2)n1` stands 79 to 81 °C.

The compound `Nc1noc(C23CCCN(C2)C3)n1` registered a melting point of 167 to 170 °C. The compound `Cc1nn(C)c(=O)c(-n2nc(-c3ccc(C(F)(F)F)cc3)cc2C)c1O` had a melting point of 191 to 194 °C. `O=C(O)C(=O)N1CCC(Cc2ccc(F)cc2)CC1` gave a melting point of 152 to 154 °C. On to `O=C(NCCCCCCCNC(=O)c1ccc(OC(F)F)cc1)c1ccc(OC(F)F)cc1`, for which the melting point is 138 to 139 °C. On to `CC(=O)N(C)C(=N[N+](=O)[O-])N(Cc1cnc(Cl)s1)C(C)=O`, for which the melting point fell in the range of 72 to 74 °C.

Compound `CN(C(=O)OC(C)(C)C)c1cc(Oc2ccccc2N2CCCC2)ccc1N` registered a melting point of 136 to 138 °C. In turn, `NCc1ccc(N2CCCN(c3ccc(CCC(=O)O)cc3)C2=O)cc1` returned a melting point of 229 to 231 °C. `COc1ccc2c(c1)OC(CNCCCOc1cc3ccccc3oc1=O)CO2` (centres undefined) yielded a melting point of 176 to 178 °C. Compound `COc1ccc2c(=O)c(-c3ccc(OCC(O)CNC4CCCCC4)cc3)coc2c1` (centres undefined) yielded a melting point of 125 to 126 °C. For the compound `NC(=O)Nc1ccc(/C=C/C(=O)O)cc1`, the melting point is over 350 °C. The compound `CSc1nnc(-c2ccc3occ(-c4ccccc4Cl)c3c2)o1` returned a melting point of 137 to 138 °C. `OC1CCCc2ccc(-c3ccc4nc(-c5ccc(Cl)cc5)cn4c3)cc21` (centres undefined) gave a melting point of 232 to 234 °C. Then `Cc1nc2cccc(OCC(C)(C)NC(=O)CC(C)C)c2c(N)c1C(=O)O`, with 195 to 198 °C; and `CC(Cc1c[nH]c2ccccc12)(NC(=O)OCC1c2ccccc2-c2ccccc21)C(=O)NC(CO)Cc1ccccc1` (centres undefined), with 89 to 93 °C; and `CCOc1ccccc1-c1ccc2cnc(Nc3ccc(N4CCN(C)CC4)cc3)nn12`, with 164 to 165 °C.

In turn, `CC(=O)Nc1scc(C)c1C(=O)c1ccccc1Cl` came in with a melting point of 148 to 149 °C.

In turn, `CC1C(=O)OC2COCC21` (centres undefined) showed a melting point of 89.5 to 90 °C. Under `NC(=O)N1c2ccccc2CC(=NO)c2ccccc21` stands 230 to 232 °C; under `Cc1cc(-c2csc(-c3ccc(C(=O)O)cc3)n2)c(C)o1`, 264 to 265 °C.

Take `COc1cccc(-c2nc3ccc(OC)cc3s2)c1`: the melting point lay in the range of 155 to 157 °C. `O=C1/C(=C(\NCCO)c2ccccc2)Sc2ccccc21` had a melting point of 122 to 123 °C. In turn, `Cc1ncc2n1-c1ccc(Cl)cc1C(c1ccccc1F)N(N=O)C2` (centres undefined) showed a melting point of 139 to 145 °C. Compound `CC(O)C1CCCCCCCCCCC1` (centres undefined) displayed a melting point of 35 °C.

Take `Cc1ccccc1Cc1ccc(=O)[nH]n1`: the melting point lay in the range of 156 to 157 °C.

`Cc1nc(C#N)sc1-c1ccncc1` had a melting point of 169 to 170 °C. In turn, `O=C(NCCO)c1cccc(-c2cccc3nc(Cc4cccc(C(F)(F)F)c4)sc23)c1` had a melting point of 94 to 95 °C.

Regarding `Oc1ccc(-c2nc(-c3ccccc3)[nH]c2-c2ccc(O)cc2)cc1`, the melting point lay in the range of 327 to 330 °C.

Regarding `CCCCC(c1c[nH]cn1)c1cccc(CO)c1O` (centres undefined), the melting point was determined as 93 °C. Take `CCOC(=O)c1csc(C)c1N(CC)c1nc(C)cc(C)n1`: the melting point lay within 99 to 100 °C. For `CCn1cc(C(=O)O)c(=O)c2ccc(N3CCNCC3)cc21`, the melting point was 272 to 275 °C. In turn, `Cc1oc(-c2ccccc2)nc1C(O)COc1ccc(CCCC2OC(=O)NC2=O)cc1` (centres undefined) had a melting point of 146 to 147 °C. Then `C[C@H](c1ccccc1)N1C(=O)N(Cc2ccccc2)[C@@H]2C(=O)OC[C@@H]21`, with 163 to 164 °C. Compound `COc1cc2c(cc1OC)C(Cc1ccc(NC(C)=O)c(I)c1)N(C(=O)C(F)(F)F)CC2` (centres undefined) showed a melting point of 174 to 175 °C. The compound `CC1(C)COC(c2c(F)cccc2C2(C)CCCC2)=N1` yielded a melting point of 116 to 117 °C. Then `CC(=O)N1CCC(N2C(=O)CN=C(c3ccccc3)c3ccccc32)CC1`, with 208 to 209 °C; and `CCOC(=O)CSc1nnc(-c2ccc3c(c2)CCO3)o1`, with 92 to 93 °C; and `C(=C\c1ccc2c(c1)COC(N[C@@H]1CCc3ccccc31)=N2)/c1ccccc1`, with 162 °C. The compound `Cc1nc(-c2ccc(Cl)cc2)c(CCC(=O)O)o1` had a melting point of 211 to 212 °C. Compound `O=C(O)CCCc1cc2nc(Cl)ccc2n1S(=O)(=O)c1ccc(Cl)cc1` returned a melting point of 174 °C. Then `COc1ccc2c(n1)C1(CO2)C(=O)N(CC2CCCO2)c2cccc(Br)c21` (centres undefined), with 110 to 112 °C; and `CCC(C(=O)c1ccc(NS(C)(=O)=O)cc1)c1ccccc1` (centres undefined), with 143 to 147 °C. Then `COc1ccc(C(CC(=O)Nc2ncccc2C)N2C(=O)c3ccccc3C2=O)cc1OC` (centres undefined), with 171 to 172 °C; and `Oc1ccc(-c2ccc(-c3ccccc3)nc2-c2ccc(OCCN3CCCC3)cc2)cc1`, with 176 to 178 °C; and `N#Cc1cc(-c2nc3cncnc3s2)ccc1Oc1ccc(O)cc1`, with over 250 °C. Compound `Cn1ccnc1Sc1ccc(Nc2c(C#N)cnc3cc(Br)ccc23)cc1Cl` registered a melting point of 258 to 261 °C. Consider `O=C(O)Cc1ccccc1CC(=O)Nc1cccc(/C=C/c2nc(C3CCC3)cs2)c1`, for which the melting point was in the range of 160 to 162 °C. Compound `CN=C(NC#N)NCCSCc1ccsn1` returned a melting point of 63 to 64 °C. In turn, `Cc1cccc2c1C(NCCSCc1ccc(CN(C)C)o1)=NS2(=O)=O` displayed a melting point of 90 to 92 °C. In turn, `CC(=O)NC[C@H]1CN(c2ccc(C3CCN(S(C)(=O)=O)CC3)c(F)c2)C(=O)O1` showed a melting point of 240 to 242 °C.

`O=C(O)c1ncccc1Cl` registered a melting point of 126 to 128 °C.

`CCOC(=O)C(=NOC1CCCCO1)c1csc(NC(c2ccccc2)(c2ccccc2)c2ccccc2)n1` (centres undefined) displayed a melting point of 184 °C.

The compound `CCCn1cc2c(C3C(=O)Nc4ccc(Br)cc43)nc(NCCCN3CCOCC3)nc2n1` (centres undefined) yielded a melting point of 298 to 303 °C. Compound `O=C1[C@@H]2CCCN2C(=O)N1c1cc(Cl)cc(Cl)c1` registered a melting point of 169 °C. Turning to `CN(C)c1nc(N)c(C#N)nc1C#N`, the melting point was in the range of 201 to 202 °C. Consider `COc1cc(N(Cc2cccc(SC(F)(F)F)c2)C[C@@H](O)C(F)(F)F)cc(OC)c1OC`, for which the melting point lay in the range of 88.9 to 89.1 °C.

`CCCCN(CCCC)c1ccc(C=CC2=C(C#N)C(=C(C#N)C#N)OC2(C)C)c(O[Si](c2ccccc2)(c2ccccc2)C(C)(C)C)c1` showed a melting point of 220 to 221 °C. In turn, `CC(=O)SCC(C)C(=O)N(CC(=O)O)C1Cc2ccccc2C1` (centres undefined) showed a melting point of 81 to 83 °C. In the case of `CC1(C)CCC(C)(C)c2cc3cc(-c4ccc(C(=O)O)c(Cl)c4)ccc3cc21`, the melting point was in the range of 213 to 215 °C.

Consider `CCn1c(=O)c2ccccc2n2cnc(-c3nc(COC)no3)c12`, for which the melting point was found to be 176 °C.

For the compound `CC(C)Oc1nc(O)ns1`, the melting point came out at 74 °C. Turning to `CN1C(=O)c2c(Oc3ccccc3O)cc3[nH]c4cc(O)ccc4c3c2C1=O`, the melting point was 200 °C. The compound `COc1ccc2c(c1)C1(O)C(=O)c3ccccc3C1(O)O2` (centres undefined) showed a melting point of 186 to 189 °C.

Regarding `CCCCc1nc2cc(Cl)c(Cl)cc2n1Cc1ccc(C(=O)O)cc1`, the melting point was 244 to 246 °C. On to `OCC1OC(n2cnc3c(NNC4CCOc5ccccc54)ncnc32)C(O)C1O` (centres undefined), for which the melting point fell in the range of 125 to 130 °C.
